Results taken from patent publication EP4722207A1, “OXOISOINDOLINYL-SUBSTITUTED TETRAHYDROPYRIMIDINEDIONE DERIVATIVE AND USE THEREOF” (Gluetacs Therapeutics (Shanghai) Co., Ltd., priority 2023, dated 2024).

Columns and labels:
Format in all cases: cell-based
[1] = target: T1, IKZF3 (Homo sapiens, UniProt Q96SW2+Q9UKT9); experiment: Western-blot assay, substrate protein degradation in hPBMCs: IKZF3; details: for substrate protein remaining % IKZF3: 24 hours of compound treatment, 50 nM and 500 nM; for IKZF3 substrate protein remaining %: compounds at 50 nM and 500 nM, 24 hours
T1 construct: effects of the compounds of the present disclosure on the expression of target proteins in cells; endogenous in cells; host or cells: human PBMCs (hPBMCs)

[2] = target: T2, CK1α (Homo sapiens, UniProt P48729+Q96SW2); experiment: Western-blot assay, substrate protein degradation in hPBMCs: CK1α; details: for substrate protein remaining % CK1α: 24 hours of compound treatment, 50 nM and 500 nM; for CK1α substrate protein remaining %: compounds at 50 nM and 500 nM, 24 hours
T2 construct: effects of the compounds of the present disclosure on the expression of target proteins in cells; endogenous in cells; host or cells: human PBMCs (hPBMCs)
T2 sequence (P48729 whole entry): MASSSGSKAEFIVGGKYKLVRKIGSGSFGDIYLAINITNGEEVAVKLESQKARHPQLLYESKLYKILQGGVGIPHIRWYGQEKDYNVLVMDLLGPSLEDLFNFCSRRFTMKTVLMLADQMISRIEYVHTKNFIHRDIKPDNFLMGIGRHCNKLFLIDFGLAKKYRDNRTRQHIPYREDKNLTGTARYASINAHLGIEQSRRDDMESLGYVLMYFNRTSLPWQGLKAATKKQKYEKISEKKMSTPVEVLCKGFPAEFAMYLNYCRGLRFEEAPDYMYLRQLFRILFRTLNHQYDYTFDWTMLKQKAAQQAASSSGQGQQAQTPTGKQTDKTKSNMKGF
T2 sequence (Q96SW2 whole entry): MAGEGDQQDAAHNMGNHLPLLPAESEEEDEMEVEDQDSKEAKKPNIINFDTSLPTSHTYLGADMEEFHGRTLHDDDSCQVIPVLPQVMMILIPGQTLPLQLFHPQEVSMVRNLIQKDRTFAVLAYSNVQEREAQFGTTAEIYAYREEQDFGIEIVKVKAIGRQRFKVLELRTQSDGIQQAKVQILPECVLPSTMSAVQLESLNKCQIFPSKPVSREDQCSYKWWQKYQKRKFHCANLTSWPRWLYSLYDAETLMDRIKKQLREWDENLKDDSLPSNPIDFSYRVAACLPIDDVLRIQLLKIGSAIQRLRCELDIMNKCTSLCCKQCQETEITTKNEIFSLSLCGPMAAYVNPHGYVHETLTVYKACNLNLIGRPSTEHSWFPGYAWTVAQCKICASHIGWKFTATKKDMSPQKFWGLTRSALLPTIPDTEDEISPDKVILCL
T2 sequence (Q16531 whole entry partner): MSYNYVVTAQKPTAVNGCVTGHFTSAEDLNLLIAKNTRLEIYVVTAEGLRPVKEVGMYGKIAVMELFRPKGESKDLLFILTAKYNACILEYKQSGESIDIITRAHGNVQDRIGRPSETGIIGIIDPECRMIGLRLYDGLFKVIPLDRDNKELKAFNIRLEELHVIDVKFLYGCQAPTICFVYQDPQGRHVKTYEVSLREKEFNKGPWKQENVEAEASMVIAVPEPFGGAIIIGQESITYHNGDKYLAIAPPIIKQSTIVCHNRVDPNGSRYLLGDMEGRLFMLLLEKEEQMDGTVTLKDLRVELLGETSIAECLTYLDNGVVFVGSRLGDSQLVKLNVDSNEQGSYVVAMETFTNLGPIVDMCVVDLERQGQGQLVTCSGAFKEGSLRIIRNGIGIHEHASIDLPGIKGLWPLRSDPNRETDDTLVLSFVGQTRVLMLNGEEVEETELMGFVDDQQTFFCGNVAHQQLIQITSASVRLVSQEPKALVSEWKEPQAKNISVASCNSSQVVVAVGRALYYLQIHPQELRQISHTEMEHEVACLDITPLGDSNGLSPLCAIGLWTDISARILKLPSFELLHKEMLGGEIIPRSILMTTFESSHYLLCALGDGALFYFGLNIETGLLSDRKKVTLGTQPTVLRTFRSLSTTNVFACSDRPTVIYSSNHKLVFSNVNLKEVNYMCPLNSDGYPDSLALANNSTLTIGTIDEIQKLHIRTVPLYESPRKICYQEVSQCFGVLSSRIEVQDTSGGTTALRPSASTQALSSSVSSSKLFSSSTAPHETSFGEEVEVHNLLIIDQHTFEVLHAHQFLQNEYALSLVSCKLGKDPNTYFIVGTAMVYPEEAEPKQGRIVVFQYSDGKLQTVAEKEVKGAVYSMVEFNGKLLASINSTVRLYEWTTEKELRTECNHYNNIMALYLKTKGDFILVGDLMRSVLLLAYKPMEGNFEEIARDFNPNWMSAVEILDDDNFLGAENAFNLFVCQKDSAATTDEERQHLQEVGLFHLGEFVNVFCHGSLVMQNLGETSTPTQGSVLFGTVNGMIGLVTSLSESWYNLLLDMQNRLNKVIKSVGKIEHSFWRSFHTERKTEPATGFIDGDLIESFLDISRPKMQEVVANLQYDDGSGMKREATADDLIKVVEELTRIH

[3] = target: T3, IKZF2 (Homo sapiens, UniProt Q96SW2+Q9UKS7); experiment: Western-blot assay, substrate protein degradation in hPBMCs: IKZF2; details: for substrate protein remaining % IKZF2: 24 hours of compound treatment, 50 nM and 500 nM; for IKZF2 substrate protein remaining %: compounds at 50 nM and 500 nM, 24 hours
T3 construct: effects of the compounds of the present disclosure on the expression of target proteins in cells; endogenous in cells; host or cells: human PBMCs (hPBMCs)
T3 sequence (Q9UKS7 whole entry): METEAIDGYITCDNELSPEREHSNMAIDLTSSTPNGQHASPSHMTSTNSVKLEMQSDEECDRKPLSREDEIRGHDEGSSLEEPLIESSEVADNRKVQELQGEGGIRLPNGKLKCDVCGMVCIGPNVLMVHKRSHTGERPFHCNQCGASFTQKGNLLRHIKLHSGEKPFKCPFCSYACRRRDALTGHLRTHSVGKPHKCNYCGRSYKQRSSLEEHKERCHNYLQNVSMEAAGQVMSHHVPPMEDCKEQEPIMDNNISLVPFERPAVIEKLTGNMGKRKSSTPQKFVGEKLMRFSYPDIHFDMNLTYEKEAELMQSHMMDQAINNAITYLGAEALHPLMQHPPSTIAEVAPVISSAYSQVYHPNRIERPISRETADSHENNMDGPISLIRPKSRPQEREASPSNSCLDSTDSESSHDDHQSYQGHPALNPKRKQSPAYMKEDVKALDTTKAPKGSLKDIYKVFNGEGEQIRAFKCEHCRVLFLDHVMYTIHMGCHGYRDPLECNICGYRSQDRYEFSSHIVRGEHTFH
T3 sequence (Q96SW2 whole entry): as the sequence (Q96SW2 whole entry) above
T3 sequence (Q16531 whole entry partner): as the sequence (Q16531 whole entry partner) above

[4] = target: T4, GSPT1 (Homo sapiens, UniProt P15170+Q96SW2); experiment: Western-blot assay, substrate protein degradation in hPBMCs: GSPT1; details: for substrate protein remaining % GSPT1: 24 hours of compound treatment, 50 nM and 500 nM; for GSPT1 substrate protein remaining %: compounds at 50 nM and 500 nM, 24 hours
T4 construct: effects of the compounds of the present disclosure on the expression of target proteins in cells; endogenous in cells; host or cells: human PBMCs (hPBMCs)
T4 sequence (P15170 whole entry): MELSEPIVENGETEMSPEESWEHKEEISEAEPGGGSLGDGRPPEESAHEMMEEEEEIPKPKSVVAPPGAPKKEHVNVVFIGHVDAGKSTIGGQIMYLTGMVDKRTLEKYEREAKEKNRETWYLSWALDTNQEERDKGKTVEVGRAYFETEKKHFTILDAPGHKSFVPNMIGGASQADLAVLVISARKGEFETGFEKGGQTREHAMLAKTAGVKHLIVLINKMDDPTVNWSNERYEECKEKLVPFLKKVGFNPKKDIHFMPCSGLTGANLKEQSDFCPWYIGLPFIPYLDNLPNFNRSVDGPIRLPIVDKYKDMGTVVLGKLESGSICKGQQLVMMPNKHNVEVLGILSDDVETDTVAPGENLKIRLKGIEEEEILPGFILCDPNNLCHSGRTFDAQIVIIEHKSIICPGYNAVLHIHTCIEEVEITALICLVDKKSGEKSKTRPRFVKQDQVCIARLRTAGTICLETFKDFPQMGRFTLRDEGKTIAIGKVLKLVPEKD
T4 sequence (Q96SW2 whole entry): as the sequence (Q96SW2 whole entry) above
T4 sequence (Q16531 whole entry partner): as the sequence (Q16531 whole entry partner) above

[5] = target: T5, WEE1 (Homo sapiens, UniProt P30291+Q96SW2); experiment: Western-blot assay, substrate protein degradation in hPBMCs: WEE1; details: for substrate protein remaining % WEE1: 24 hours of compound treatment, 50 nM and 500 nM; for WEE1 substrate protein remaining %: compounds at 50 nM and 500 nM, 24 hours
T5 construct: effects of the compounds of the present disclosure on the expression of target proteins in cells; endogenous in cells; host or cells: human PBMCs (hPBMCs)
T5 sequence (P30291 whole entry): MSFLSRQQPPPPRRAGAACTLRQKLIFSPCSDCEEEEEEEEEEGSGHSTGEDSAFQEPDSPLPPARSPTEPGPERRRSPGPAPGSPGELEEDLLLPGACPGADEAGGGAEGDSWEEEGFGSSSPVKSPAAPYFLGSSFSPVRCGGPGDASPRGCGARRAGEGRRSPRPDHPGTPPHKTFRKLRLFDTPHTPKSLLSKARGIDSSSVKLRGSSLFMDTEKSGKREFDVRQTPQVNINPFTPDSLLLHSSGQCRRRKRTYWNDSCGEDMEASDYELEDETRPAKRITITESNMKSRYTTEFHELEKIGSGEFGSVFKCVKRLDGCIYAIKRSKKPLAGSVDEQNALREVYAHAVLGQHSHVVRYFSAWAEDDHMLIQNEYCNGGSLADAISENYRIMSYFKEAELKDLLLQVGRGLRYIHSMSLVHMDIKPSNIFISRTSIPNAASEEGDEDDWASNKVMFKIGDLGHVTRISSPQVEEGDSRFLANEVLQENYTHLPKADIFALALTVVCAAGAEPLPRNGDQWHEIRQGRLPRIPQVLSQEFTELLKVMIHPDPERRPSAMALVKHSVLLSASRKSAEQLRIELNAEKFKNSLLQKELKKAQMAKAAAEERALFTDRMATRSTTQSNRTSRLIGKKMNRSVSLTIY
T5 sequence (Q96SW2 whole entry): as the sequence (Q96SW2 whole entry) above
T5 sequence (Q16531 whole entry partner): as the sequence (Q16531 whole entry partner) above

[6] = target: T6, IKZF1 (Homo sapiens, UniProt Q13422+Q96SW2); experiment: Western-blot assay, substrate protein degradation in hPBMCs: IKZF1; details: for substrate protein remaining % IKZF1: 24 hours of compound treatment, 50 nM and 500 nM; for IKZF1 substrate protein remaining %: compounds at 50 nM and 500 nM, 24 hours
T6 construct: effects of the compounds of the present disclosure on the expression of target proteins in cells; endogenous in cells; host or cells: human PBMCs (hPBMCs)
T6 sequence (Q13422 whole entry): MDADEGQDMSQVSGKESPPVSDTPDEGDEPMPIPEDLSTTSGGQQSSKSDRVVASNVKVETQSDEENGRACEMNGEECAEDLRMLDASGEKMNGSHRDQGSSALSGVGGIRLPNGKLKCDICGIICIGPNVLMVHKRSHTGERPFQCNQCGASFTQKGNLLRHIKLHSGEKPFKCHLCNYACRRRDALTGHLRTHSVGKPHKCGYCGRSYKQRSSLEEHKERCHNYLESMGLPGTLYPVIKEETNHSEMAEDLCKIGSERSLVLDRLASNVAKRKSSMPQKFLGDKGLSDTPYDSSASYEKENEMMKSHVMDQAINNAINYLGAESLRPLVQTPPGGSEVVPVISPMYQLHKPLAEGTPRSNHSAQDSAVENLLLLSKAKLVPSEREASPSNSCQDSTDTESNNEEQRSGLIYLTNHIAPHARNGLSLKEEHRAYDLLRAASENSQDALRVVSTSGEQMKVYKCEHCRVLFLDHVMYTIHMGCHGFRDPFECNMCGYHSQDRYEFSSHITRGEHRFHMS
T6 sequence (Q96SW2 whole entry): as the sequence (Q96SW2 whole entry) above
T6 sequence (Q16531 whole entry partner): as the sequence (Q16531 whole entry partner) above

Structure (SMILES) | substrate protein remaining % IKZF3 [1] | IKZF3 substrate protein remaining % [1] | substrate protein remaining % CK1α [2] | CK1α substrate protein remaining % [2] | substrate protein remaining % IKZF2 [3] | IKZF2 substrate protein remaining % [3] | substrate protein remaining % GSPT1 [4] | GSPT1 substrate protein remaining % [4] | substrate protein remaining % WEE1 [5] | WEE1 substrate protein remaining % [5] | substrate protein remaining % IKZF1 [6] | IKZF1 substrate protein remaining % [6]
O=C1CCN(N2Cc3cc(CN4CCN(c5nccc(I)c5F)CC4)ccc3C2=O)C(=O)N1 [GT-05406, 1-(5-((4-(3-fluoro-4-iodopyridin-2-yl)piperazin-1-yl)methyl)-1-oxoisoindolin-2-yl)dihydropyrimidine-2,4(1H,3H)-dione] | B (80%< substrate protein remaining %≤ 100%) | B ("B" is defined as 80%< substrate protein remaining %≤ 100%) | B (80%< substrate protein remaining %≤ 100%) | B ("B" is defined as 80%< substrate protein remaining %≤ 100%) | B (80%< substrate protein remaining %≤ 100%) | A ("A" is defined as 0% ≤ substrate protein remaining % ≤ 80%) | A (0% ≤ substrate protein remaining % ≤ 80%) | A ("A" is defined as 0% ≤ substrate protein remaining % ≤ 80%) | B (80%< substrate protein remaining %≤ 100%) | A ("A" is defined as 0% ≤ substrate protein remaining % ≤ 80%) | B (80%< substrate protein remaining %≤ 100%) | B ("B" is defined as 80%< substrate protein remaining %≤ 100%)
COc1ccc(N2CCN(Cc3ccc4c(c3)C(=O)N(N3CCC(=O)NC3=O)C4=O)CC2)cc1 [GT-06728, 2-(2,4-dioxotetrahydropyrimidin-1(2H)-yl)-5-((4-(4-methoxyphenyl)piperazin-1-yl)methyl)isoindoline-1,3-dione] |  | A ("A" is defined as 0% ≤ substrate protein remaining % ≤ 80%) |  | A ("A" is defined as 0% ≤ substrate protein remaining % ≤ 80%) |  | A ("A" is defined as 0% ≤ substrate protein remaining % ≤ 80%) |  | B ("B" is defined as 80%< substrate protein remaining %≤ 100%) |  | B ("B" is defined as 80%< substrate protein remaining %≤ 100%) |  | B ("B" is defined as 80%< substrate protein remaining %≤ 100%)
O=C1CCN(N2Cc3cc(CN4CCN(c5n[nH]c6cc(F)ccc56)CC4)ccc3C2=O)C(=O)N1 [GT-07545, 1-(5-((4-(6-fluoro-1H-indazol-3-yl)piperazin-1-yl)methyl)-1-oxoisoindolin-2-yl)dihydropyrimidine-2,4(1H,3H)-dione] | B (80%< substrate protein remaining %≤ 100%) |  | A (0% ≤ substrate protein remaining % ≤ 80%) |  | B (80%< substrate protein remaining %≤ 100%) |  | A (0% ≤ substrate protein remaining % ≤ 80%) |  | A (0% ≤ substrate protein remaining % ≤ 80%) |  | A (0% ≤ substrate protein remaining % ≤ 80%) | 
O=C1CCN(N2C(=O)c3ccc(CN4CCc5sccc5C4)cc3C2=O)C(=O)N1 [GT-05254, 5-((6,7-dihydrothieno[3,2-c]pyridin-5(4H)-yl)methyl)-2-(2,4-dioxotetrahydropyrimidin-1(2H)-yl)isoindoline-1,3-dione] |  | B ("B" is defined as 80%< substrate protein remaining %≤ 100%) |  | B ("B" is defined as 80%< substrate protein remaining %≤ 100%) |  | B ("B" is defined as 80%< substrate protein remaining %≤ 100%) |  | A ("A" is defined as 0% ≤ substrate protein remaining % ≤ 80%) |  | B ("B" is defined as 80%< substrate protein remaining %≤ 100%) |  | B ("B" is defined as 80%< substrate protein remaining %≤ 100%)
CC1(C)CCC(CN2CC3CC2CN3Cc2ccc3c(c2)CN(N2CCC(=O)NC2=O)C3=O)=C(c2ccc(Cl)cc2)C1 (stereo not drawn) [GT-07329, 1-(5-((5-((4'-chloro-5,5-dimethyl-3,4,5,6-tetrahydro-[1,1'-biphenyl]-2-yl)methyl)-2,5-diazabicyclo[2.2.1]heptan-2-yl)methyl)-1-oxoisoindolin-2-yl)dihydropyrimidine-2,4(1H,3H)-dione] | B (80%< substrate protein remaining %≤ 100%) |  | B (80%< substrate protein remaining %≤ 100%) |  | B (80%< substrate protein remaining %≤ 100%) |  | A (0% ≤ substrate protein remaining % ≤ 80%) |  | A (0% ≤ substrate protein remaining % ≤ 80%) |  | B (80%< substrate protein remaining %≤ 100%) | 
Cc1ccc(N2CCN(Cc3ccc4c(c3)CN(N3CCC(=O)NC3=O)C4=O)CC2)s1 [GT-05083, 1-(5-((4-(5-methylthiophen-2-yl)piperazin-1-yl)methyl)-1-oxoisoindolin-2-yl)dihydropyrimidine-2,4(1H,3H)-dione] |  | B ("B" is defined as 80%< substrate protein remaining %≤ 100%) |  | B ("B" is defined as 80%< substrate protein remaining %≤ 100%) |  | A ("A" is defined as 0% ≤ substrate protein remaining % ≤ 80%) |  | B ("B" is defined as 80%< substrate protein remaining %≤ 100%) |  | B ("B" is defined as 80%< substrate protein remaining %≤ 100%) |  | B ("B" is defined as 80%< substrate protein remaining %≤ 100%)
O=C1CCN(N2C(=O)c3ccc(CN4CCN(c5ccncc5Br)CC4)cc3C2=O)C(=O)N1 [GT-07163, 5-((4-(3-bromopyridin-4-yl)piperazin-1-yl)methyl)-2-(2,4-dioxotetrahydropyrimidin-1(2H)-yl)isoindoline-1,3-dione] |  | B ("B" is defined as 80%< substrate protein remaining %≤ 100%) |  | B ("B" is defined as 80%< substrate protein remaining %≤ 100%) |  | A ("A" is defined as 0% ≤ substrate protein remaining % ≤ 80%) |  | A ("A" is defined as 0% ≤ substrate protein remaining % ≤ 80%) |  | B ("B" is defined as 80%< substrate protein remaining %≤ 100%) |  | B ("B" is defined as 80%< substrate protein remaining %≤ 100%)
O=C1CCN(N2Cc3cc(CN4CC5CCC(C4)N5C(c4ccccc4)c4ccccc4)ccc3C2=O)C(=O)N1 [GT-06452, 1-(5-((8-benzhydryl-3,8-diazabicyclo[3.2.1]octan-3-yl)methyl)-1-oxoisoindolin-2-yl)dihydropyrimidine-2,4(1H,3H)-dione] |  | B ("B" is defined as 80%< substrate protein remaining %≤ 100%) |  | B ("B" is defined as 80%< substrate protein remaining %≤ 100%) |  | B ("B" is defined as 80%< substrate protein remaining %≤ 100%) |  | B ("B" is defined as 80%< substrate protein remaining %≤ 100%) |  | A ("A" is defined as 0% ≤ substrate protein remaining % ≤ 80%) |  | B ("B" is defined as 80%< substrate protein remaining %≤ 100%)
O=C1CCN(N2C(=O)c3ccc(CN4CC=C(c5ncccc5F)CC4)cc3C2=O)C(=O)N1 [GT-07492, 2-(2,4-dioxotetrahydropyrimidin-1(2H)-yl)-5-((3-fluoro-3',6'-dihydro-[2,4'-bipyridin]-1'(2'H)-yl)methyl)isoindoline-1,3-dione] | B (80%< substrate protein remaining %≤ 100%) |  | A (0% ≤ substrate protein remaining % ≤ 80%) |  | B (80%< substrate protein remaining %≤ 100%) |  | B (80%< substrate protein remaining %≤ 100%) |  | B (80%< substrate protein remaining %≤ 100%) |  | B (80%< substrate protein remaining %≤ 100%) | 
O=C1CCN(N2Cc3cc(CN4CCN(c5cnnc(Cl)c5Cl)CC4)ccc3C2=O)C(=O)N1 [GT-07029, 1-(5-((4-(5,6-dichloropyridazin-4-yl)piperazin-1-yl)methyl)-1-oxoisoindolin-2-yl)dihydropyrimidine-2,4(1H,3H)-dione] |  | B ("B" is defined as 80%< substrate protein remaining %≤ 100%) |  | B ("B" is defined as 80%< substrate protein remaining %≤ 100%) |  | A ("A" is defined as 0% ≤ substrate protein remaining % ≤ 80%) |  | A ("A" is defined as 0% ≤ substrate protein remaining % ≤ 80%) |  | A ("A" is defined as 0% ≤ substrate protein remaining % ≤ 80%) |  | B ("B" is defined as 80%< substrate protein remaining %≤ 100%)
O=C1CCN(N2C(=O)c3ccc(CN4CCN(c5ccccc5Br)CC4)cc3C2=O)C(=O)N1 [GT-06727, 5-((4-(2-bromophenyl)piperazin-1-yl)methyl)-2-(2,4-dioxotetrahydropyrimidin-1(2H)-yl)isoindoline-1,3-dione] |  | A ("A" is defined as 0% ≤ substrate protein remaining % ≤ 80%) |  | A ("A" is defined as 0% ≤ substrate protein remaining % ≤ 80%) |  | A ("A" is defined as 0% ≤ substrate protein remaining % ≤ 80%) |  | B ("B" is defined as 80%< substrate protein remaining %≤ 100%) |  | B ("B" is defined as 80%< substrate protein remaining %≤ 100%) |  | B ("B" is defined as 80%< substrate protein remaining %≤ 100%)
